Laboratory results: patent US9540640B2, “Compositions and methods for inhibiting hypdxia induced damage” (Health Research, Inc., priority 2012, dated 2017)

How the values were obtained:
[1] = test system: HK-2 cells; test: Individual shRNA screening: survival of transduced HK-2 cells under hypoxia (Protocol 2); type: cell-based, human; details: viable shRNA-transduced HK-2 cells after hypoxia (0.2% oxygen 48 hours, low glucose DMEM) vs control HK-2 cells; 2-6 independent experiments; methylene blue
From the text: shRNA of the invention can be expressed from any suitable vector such as a recombinant viral vector either as two separate, complementary RNA molecules, or as a single RNA molecule with two complementary regions. In this regard, any viral vector capable of accepting the coding sequences for the shRNA molecule(s) to be expressed can be used. Examples of suitable vectors include but are not limited to vectors derived from adenovirus, adeno-associated virus, retroviruses (e.g, lentiviruses, Rhabdoviruses, murine leukemia virus), herpes virus, and the like. A preferred virus is a lentivirus. The tropism of the viral vectors can also be modified by pseudotyping the vectors with envelope proteins or other surface antigens from other viruses. As an alternative to expression of shRNA in cells from a recombinant vector, chemically stabilized shRNA or siRNAs may also be used administered as the agent in the method of the invention. Vectors for expressing shRNA which in turn produces siRNA once introduced into a cell are commercially available. Further, shRNAs which facilitate produce of siRNA targeted to virtually every known human gene are also known and are commercially available. In embodiments specific shRNAs are those which comprise polynucleotide sequences presented in Table 2, wherein those sequences are targeted to the genes as indicated. In particular, Table 2 provides the sequence of segments of shRNAs that target the HRGs of the present disclosure. […] “RPCI” under source designates the “shRNA Resource of Roswell Park Cancer Institute” which distributes shRNAs from commercial vendors. The catalog # column signifies a reference under which each of the shRNAs are made available to the public. The SEQ ID # column refers to the sequence listing that forms a part of this disclosure. The polynucleotide sequences provided in Table 2 are cDNA sequences that recognize the target gene mRNA via shRNA. It will be recognized by those skilled in the art that the shRNAs used in the Examples presented herein have the identical sequences as listed in Table 2, except for substitution of each thymine with uracil. It will be also recognize that each of the shRNAs as used in practice has additional sequences that are typical of shRNA constructs, but that the sequences listed in Table 2 are the ones that are antisense to the mRNA of the indicated HRGs.
Protocol 2: Individual shRNA screening.
Cell Preparation: Lentiviral vectors containing various shRNAs of interest were obtained from commercial sources, and packaged in 293T cells. HK-2 cells were then transduced with these expression constructs and selected for the presence of a vector-encoded antibiotic resistance marker.
Hypoxia Protocol: Day 0: HK-2 cells containing individual shRNAs were seeded in triplicate on two 96-well plates, 3×10^4 cells/well. Negative controls included uninfected cells or cells infected with a corresponding empty vector. Day 1: Keratinocyte medium was removed from the plates and fresh DMEM containing low glucose was added. One of the plates was then transported to a chamber that contained 0.2% oxygen for 48 hours, while the other remained at normoxia for the same period of time. Day 3: The cells were rescued from hypoxia and the plates were immediate fixed and stained with methylene blue to assess survival. Results were then graphed as the percent of stain of the corresponding cells incubated in normoxic conditions minus the background (non-specific dye absorption by empty wells).

[2] = test system: HKC8 cells; test: TACR1 inhibitor: protection of HKC8 cells under hypoxia; type: cell-based; details: 5 μM, 0.2% oxygen 48 hours, low glucose DMEM; methylene blue; FIG. 11
Description: We also tested the protective activity of a chemical TACR1 inhibitor in HKC8 cells using the following protocol. Day 0: HKC8 cells were seeded in complete keratinocyte medium at a density of 2×10^4 cells per well on two 96-well plates. Day 1: Keratinocyte medium was removed from the plates and fresh DMEM containing low glucose and 5 μM TACR1 inhibitor (L-733,060) was added where indicated. Treated and untreated cells were present on the plates in triplicate. The two plates were incubated in the presence of the inhibitor at normal growth conditions for 1 hour, at which time one of the plates was transported to a chamber that contained 0.2% oxygen for 48 hours, while the other remained at normoxia for the same duration. Day 3: Following exposure to hypoxia, the cells were rescued and the plates were immediately fixed and stained with methylene blue to assess survival. Results were then graphed as the percent of stain of the corresponding cells incubated in normoxic conditions minus the background (non-specific dye absorption by empty wells).

[3] = test system: HK-2 cells; test: Combined inhibition of RhoB (shRNA) and TACR1 (L-733,060): HK-2 survival in hypoxia; type: cell-based; details: L-733,060 5 μM on HK2-RhoB cells (shRNA to RhoB) vs either one alone; 0.2% oxygen 48 hours; FIG. 9
Description: To obtain the data presented in FIG. 9, HK-2 cells were trasnduced with either a construct expressing an shRNA to RhoB (cell line “HK2-RhoB”) or the corresponding empty vector (cell line “HK2-vector”). The survival of cells in hypoxic condition with or without addition of TACR1 inhibitor was evaluated using the following protocol: Day 0: HK-2 cells were seeded on two 96-well plates, 3×10^4 cells/well. Day 1: Keratinocyte medium was removed from the plates and fresh DMEM containing low glucose. TACR1 inhibitor (L-733,060; 5 μM) was added to half of the wells of either HK2-RhoB or HK2-vector. One hour later one of the plates was transported to a chamber that contained 0.2% oxygen for 48 hours, while the other remained at normoxia for the same period of time. Day 3: The cells were rescued from hypoxia and the plates were immediate fixed and stained with methylene blue to assess survival. Results were then graphed as the percent of stain of the corresponding cells incubated in normoxic conditions minus the background (non-specific dye absorption by empty wells).

[4] = test system: hRPTEC cells; test: TACR1 inhibitor: survival of hRPTEC cells under hypoxia; type: cell-based; details: 0.2% oxygen 48 hours, low glucose DMEM, inhibitor added 1 hour before; methylene blue; FIG. 7
Description: The following protocol was used: Day 0: hRPTEC were seeded on two 96-well plates, 2×10^4 cells/well. Day 1: Keratinocyte medium was removed from the plates and fresh DMEM containing low glucose and the indicated concentration of the TACR1 inhibitor (L-733,060) was added. Each concentration was examined in quadruplicate fashion. The two plates were incubated in the presence of the inhibitor at normal growth conditions for 1 hour, at which time one of the plates was transported to a chamber that contained 0.2% oxygen for 48 hours, while the other remained at normoxia for the same period of time. Day 3: The cells were rescued from hypoxia and the plates were immediate fixed and stained with methylene blue to assess survival. The percent of stain of the corresponding cells incubated in normoxic conditions minus the background (non-specific dye absorption by empty wells) was calculated as a measure of cell resistance to the hypoxia. The results were plotted as a fold increase in resistance over that of cells not treated with L-733,060.

[5] = test system: kidneys; test: Mouse model of acute renal ischemia, plasma markers of kidney damage; type: in vivo; details: i.p. 30 mg/kg or 90 mg/kg 30 minutes before 25 min ischemia of both kidneys, 24 hrs after reperfusion, FIG. 8
Description: In particular, the protective effects of chemically inhibiting TACR1 were examined in a mouse model of acute renal ischemia using the following protocol: i. 30 minutes before the surgery, mice received an i.p. injection of a TACR1 inhibitor (L-733,060) at either 30 mg/kg or 90 mg/kg, or of the respective vehicle (saline). ii. Under general anesthesia with Ketamin/Rompun, the mice were subjected to 25 min of ischemic of both kidneys. Each of the 2 kidneys was exposed through a flank incision. The kidney pedicle was clamped with atraumatic clamps for 25 min. iii. Mice were kept in an incubator at constant temperature 36 C during the 25 min of ischemia. After 25 min of ischemia, clamps were removed and wounds were closed. iv. 24 hrs after reperfusion blood samples were taken and mice were sacrificed. v. The levels of biochemical markers of kidney damage were measured in the plasma of the collected blood. Specifically, creatinine, neutrophil gelatinase-associated lipocalin (NGAL), osteopontin and urea (blood urea nitrogen) were measured.

Molecule | geometric mean of fold increase in cell number [1] [fold] | also measured
11 (TCTTGCCAAGGTTTATGGC; expressed or natural sequence) [compound 11] | 8 | –
24 (TTCTTGTAAATAATGAGCG; expressed or natural sequence) [compound 24] | 5 | –
26 (TTCCAGTAGAAGTAGTACT; expressed or natural sequence) [compound 26] | 12 | –
20 (TCTTCTAAGCACTGAAGAG; expressed or natural sequence) [compound 20] | 11 | –
12 (ATCTCTTTGGACTTGAAGC; expressed or natural sequence) [compound 12] | 9 | –
19 (AACATGTTCATAACCAGGTCG; expressed or natural sequence) [compound 19] | 26 | –
17 (AAACGCTAAAGATGAGTCC; expressed or natural sequence) [compound 17] | 7 | –
FC(F)(F)c1cc(CO[C@H]2CCCN[C@H]2c2ccccc2)cc(C(F)(F)F)c1 [L-733,060, (2S,3S)-3-{[3,5-bis(trifluoromethyl)benzyl]oxy}-2-phenylpiperidine] | – | protection against the effects of hypoxia on HKC8 cells [2]: strongly protective; protection from hypoxia, combined inhibition of RhoB and TACR1 [3]: better protection that inhibition of either one alone; survival of hRPTEC cells under hypoxia [4]: significantly increases survival; signs of kidney damage (plasma creatinine, NGAL, osteopontin, urea) [5]: decreases the appearance of signs of kidney damage
18 (ATTGGTTTGATTTCCTCCC; expressed or natural sequence) [compound 18] | 18 | –
23 (ATAAATATCTGTTCCCAAG; expressed or natural sequence) [compound 23] | 15 | –
16 (TCTTCAACAGAATCCACTT; expressed or natural sequence) [compound 16] | 6 | –
13 (TGATGTCTGGTGTAGTAGG; expressed or natural sequence) [compound 13] | 10 | –
25 (TTCTCATAAATCTTGTTCG; expressed or natural sequence) [compound 25] | 15 | –
22 (TACTGAACACGATCAGCAG; expressed or natural sequence) [compound 22] | 9 | –
27 (TTGGATCTGTAAAGACGCCAC; expressed or natural sequence) [compound 27] | 5 | –
15 (ATGACATTGATCTGATCCA; expressed or natural sequence) [compound 15] | 23 | –
21 (TTACTGAACACGATCAGCAGG; expressed or natural sequence) [compound 21] | 22 | –
14 (ATCTCCTGAATATTTCAGCAG; expressed or natural sequence) [compound 14] | 13 | –
